Reference: article PMC4902181 (Journal of medicinal chemistry, 2015)
“Also recorded” adds a separate entry of the source.

How the values were obtained:
RBP4-TTR interaction = RBP4-TTR interaction (Homo sapiens, UniProt P02753); experiment: HTRF retinol-dependent RBP4-TTR interaction assay; assay type: biochemical; details: read-out: RBP4 HTRF IC50; 1 µM retinol
serum RBP4 [1] = details: acute and chronic rodent oral dosing; cited from earlier work
[2] = Human liver microsomal stability; assay type: in vitro ADME; details: compound 10 µM, 30 min incubation
[3] = Rat liver microsomal stability; assay type: in vitro ADME; details: compound 10 µM, 30 min incubation
RBP4 = RBP4 (Homo sapiens, UniProt P02753); experiment: RBP4 scintillation proximity assay; assay type: binding
[4] = 30 min incubation; cited from earlier work
CYP2C9 = CYP2C9 (Homo sapiens, UniProt P11712); details: read-out: CYP2C9 inhibitory activity IC50; cited from earlier work
Chain of CYP2C9 (P11712 whole entry): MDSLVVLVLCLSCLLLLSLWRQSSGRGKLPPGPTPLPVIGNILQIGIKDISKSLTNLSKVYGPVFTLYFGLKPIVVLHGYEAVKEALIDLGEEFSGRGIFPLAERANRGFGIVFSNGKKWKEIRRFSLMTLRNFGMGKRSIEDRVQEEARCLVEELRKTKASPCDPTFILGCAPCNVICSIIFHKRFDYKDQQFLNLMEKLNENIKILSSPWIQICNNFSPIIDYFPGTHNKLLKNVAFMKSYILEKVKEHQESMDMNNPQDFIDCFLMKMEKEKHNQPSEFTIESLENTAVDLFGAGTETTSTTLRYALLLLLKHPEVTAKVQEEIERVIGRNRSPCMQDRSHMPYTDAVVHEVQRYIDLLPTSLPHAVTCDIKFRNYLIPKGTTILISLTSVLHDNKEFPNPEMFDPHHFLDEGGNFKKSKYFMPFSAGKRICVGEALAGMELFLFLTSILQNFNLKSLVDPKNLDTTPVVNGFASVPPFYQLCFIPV

lipofuscin bisretinoids = details: chronic oral administration, Abca4−/− mouse; cited from earlier work
serum RBP4 [5] = details: chronic oral administration, Abca4−/− mouse; cited from earlier work
human PXR = target: T1, human PXR (Homo sapiens, UniProt O75469); experiment: Human PXR activation; details: data not shown
T1 sequence (O75469 1-434): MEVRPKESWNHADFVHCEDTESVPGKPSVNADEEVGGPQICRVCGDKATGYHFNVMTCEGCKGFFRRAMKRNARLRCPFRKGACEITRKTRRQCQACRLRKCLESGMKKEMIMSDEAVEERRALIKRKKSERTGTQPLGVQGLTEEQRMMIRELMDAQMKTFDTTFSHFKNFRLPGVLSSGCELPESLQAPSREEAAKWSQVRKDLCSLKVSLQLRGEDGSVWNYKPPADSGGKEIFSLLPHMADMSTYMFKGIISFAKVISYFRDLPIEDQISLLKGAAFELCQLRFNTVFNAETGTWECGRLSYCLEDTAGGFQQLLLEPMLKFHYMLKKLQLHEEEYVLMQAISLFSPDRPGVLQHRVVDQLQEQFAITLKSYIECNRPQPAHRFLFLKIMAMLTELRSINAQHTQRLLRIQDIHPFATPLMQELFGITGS

MDCK-MDR1 = experiment: MDR1-MDCK permeability assay; assay type: in vitro ADME
hERG channel = hERG channel (Homo sapiens, UniProt Q12809); experiment: Patch-Xpress patch-clamp hERG assay; assay type: cell-based
Chain of hERG channel (Q12809 whole entry): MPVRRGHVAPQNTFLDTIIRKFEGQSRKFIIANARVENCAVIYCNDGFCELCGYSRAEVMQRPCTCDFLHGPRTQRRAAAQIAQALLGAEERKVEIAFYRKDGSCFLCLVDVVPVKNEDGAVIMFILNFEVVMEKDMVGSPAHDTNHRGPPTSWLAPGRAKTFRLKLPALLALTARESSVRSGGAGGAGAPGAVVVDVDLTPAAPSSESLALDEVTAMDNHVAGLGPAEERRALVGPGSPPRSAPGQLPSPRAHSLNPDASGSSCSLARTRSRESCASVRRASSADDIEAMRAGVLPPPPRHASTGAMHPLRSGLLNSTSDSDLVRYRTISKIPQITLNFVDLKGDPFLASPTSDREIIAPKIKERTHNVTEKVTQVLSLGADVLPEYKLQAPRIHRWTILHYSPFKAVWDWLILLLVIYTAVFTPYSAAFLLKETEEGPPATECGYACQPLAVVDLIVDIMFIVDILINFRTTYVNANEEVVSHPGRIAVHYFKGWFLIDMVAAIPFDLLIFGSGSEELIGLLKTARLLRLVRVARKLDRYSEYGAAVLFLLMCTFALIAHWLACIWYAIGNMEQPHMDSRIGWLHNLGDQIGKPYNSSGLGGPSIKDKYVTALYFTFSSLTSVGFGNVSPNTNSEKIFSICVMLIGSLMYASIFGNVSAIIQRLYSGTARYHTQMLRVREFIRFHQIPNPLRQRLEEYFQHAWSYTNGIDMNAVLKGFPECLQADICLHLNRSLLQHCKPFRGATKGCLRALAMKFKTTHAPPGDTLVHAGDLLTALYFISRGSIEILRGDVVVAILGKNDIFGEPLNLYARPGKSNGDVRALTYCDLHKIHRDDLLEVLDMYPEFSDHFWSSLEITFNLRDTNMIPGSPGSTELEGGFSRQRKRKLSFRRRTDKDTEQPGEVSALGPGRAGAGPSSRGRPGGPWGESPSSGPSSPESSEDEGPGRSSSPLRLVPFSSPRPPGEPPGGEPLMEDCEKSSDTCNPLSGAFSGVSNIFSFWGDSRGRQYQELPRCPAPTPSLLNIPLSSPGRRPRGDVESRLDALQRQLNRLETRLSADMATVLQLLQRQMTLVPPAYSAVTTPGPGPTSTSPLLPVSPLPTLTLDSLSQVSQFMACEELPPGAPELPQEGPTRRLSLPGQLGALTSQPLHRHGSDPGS

[6] = Single dose IV and PO PK in rats; assay type: in vivo; details: Sprague-Dawley, rat, plasma, 2 mg/kg
[7] = system: panel of fifty-five GPCRs, enzymes, ion channels, and transporters; experiment: Standard off-target screening panel; details: data not shown

| SMILES | microsomal stability (% remaining) HLM [2] [% remaining] | microsomal stability (% remaining) RLM [3] [% remaining] | also measured |
| --- | --- | --- | --- |
| O=C(O)c1ccccc1NC(=O)N1C[C@H]2C[C@@H](c3ccccc3C(F)(F)F)C[C@H]2C1 [Compound 4, 2-((3aR,5r,6aS)-5-(2-(trifluoromethyl)phenyl)octahydrocyclopenta[c]pyrrole-2-carboxamido)benzoic acid] | 100 | 75 | IC50 (RBP4-TTR interaction): 294 nM; lowering of serum RBP4 levels (serum RBP4 [1]): > 85%; IC50 (RBP4; read-out: RBP4 SPA IC50, fixed 10 nM 3H-retinol): 72.7 nM; HLM stability (% remaining) [4]: 100 % remaining; IC50 (CYP2C9): 340 nM |
| Cc1cc(C(=O)O)nc(N2CCN(c3ccccc3C(F)(F)F)CC2)n1 [Compound 14, 6-Methyl-2-(4-(2-(trifluoromethyl)phenyl)piperazin-1-yl)-pyrimidine-4-carboxylic Acid] | 18 | 63 | – |
| COC(=O)c1cc(C)nc(N2CCN(c3ccccc3C(F)(F)F)CC2)n1 [Compound 13, methyl 6-methyl-2-(4-(2-(trifluoromethyl)phenyl)piperazin-1-yl)-pyrimidine-4-carboxylate] | 0.0 | 0.0 | – |
| Cc1cc(C(=O)O)nc(N2C[C@@H]3CN(c4ccccc4C(F)(F)F)C[C@@H]3C2)n1 [Compound 18, 6-Methyl-2-((3aR,6aS)-5-(2-(trifluoromethyl)phenyl)hexahydropyrrolo[3,4-c]pyrrol-2(1H)-yl)pyrimidine-4-carboxylic Acid] | 80 | 76 | – |
| Cc1cc(C(=O)O)nc(N2C[C@H]3C[C@@H](c4ccccc4C(F)(F)F)C[C@H]3C2)n1 [Compound 33, 6-Methyl-2-((3aR,5r,6aS)-5-(2-(trifluoromethyl)phenyl)-hexahydrocyclopenta[c]pyrrol-2(1H)-yl)pyrimidine-4-carboxylic Acid] | 94 | 93 | human PXR activation (human PXR): did not induce human PXR activation; MDCK-MDR1 permeability class (MDCK-MDR1): highly permeable; also recorded: high permeability; off-target activity at the hERG channel (hERG channel): no significant off-target activity; clearance [6]: 5.06 mL/h/kg; off-target activity in screening panel [7]: no significant off-target activity |
| COC(=O)c1cc(C)nc(N2C[C@H]3C[C@@H](c4ccccc4C(F)(F)F)C[C@H]3C2)n1 [Compound 28, Methyl 6-Methyl-2-((3aR,5r,6aS)-5-(2-(trifluoromethyl)phenyl)-hexahydrocyclopenta[c]pyrrol-2(1H)-yl)pyrimidine-4-carboxylate] | 0.2 | 9.8 | – |
| Cc1cc(C(=O)O)nc(N2C[C@H]3C[C@H](c4ccccc4C(F)(F)F)C[C@H]3C2)n1 [Compound 40, 6-Methyl-2-((3aR,5s,6aS)-5-(2-(trifluoromethyl)phenyl)-hexahydrocyclopenta[c]pyrrol-2(1H)-yl)pyrimidine-4-carboxylic Acid] | – | – | RBP4 activity (RBP4): devoid of RBP4 activity |
| O=C(O)c1cncc(N2C[C@H]3C[C@@H](c4ccccc4C(F)(F)F)C[C@H]3C2)c1 [Compound 51, 5-((3aR,5r,6aS)-5-(2-(Trifluoromethyl)phenyl)hexahydrocyclopenta[c]pyrrol-2(1H)-yl)nicotinic Acid] | – | – | RBP4 activity (RBP4): devoid of RBP4 activity |

Continued, in another order:

| microsomal stability (% remaining) HLM [2] [% remaining] | microsomal stability (% remaining) RLM [3] [% remaining] | SMILES | also measured |
| --- | --- | --- | --- |
| 3 | 85 | O=C(O)c1ccccc1NC(=O)N1CCC(c2ccccc2C(F)(F)F)CC1 [Compound 3, A1120, reference compound] | reduction of accumulation of lipofuscin bisretinoids (lipofuscin bisretinoids): approximately 50%; reduction in serum RBP4 (serum RBP4 [5]): 75%; HLM stability (% remaining) [4]: ~ 3 % remaining |
| 68 | 96 | Cc1cc(C(=O)O)nc(N2CCC(c3ccccc3C(F)(F)F)CC2)n1 [Compound 10, 6-Methyl-2-(4-(2-(trifluoromethyl)phenyl)piperidin-1-yl)-pyrimidine-4-carboxylic Acid] | – |
